Experimental data as given in patent US9163003B2, “4-piperidinyl compounds for use as tankyrase inhibitors” (NOVARTIS AG, priority 2011, dated 2015).
Where two headings read alike, the source gives them in different places.

Tests used:
[1] = biological target: tankyrase 2 protein PARP domain, TNKS2P (GST-tagged) (Homo sapiens (Human), UniProt Q9H2K2); assay: TNKS2 autoparsylation (AP) biochemical assay, LC/MS detection of nicotinamide; conditions: 20 nM enzyme, 250 μM NAD+, 60 min room temperature
[2] = biological target: human tankyrase 1 PARP catalytic domain, TNKS1P (GST-tagged) (Homo sapiens (Human), UniProt O95271); assay: TNKS1 autoparsylation (AP) biochemical assay, LC/MS detection of nicotinamide; conditions: 20 nM enzyme, 250 μM NAD+, 60 min room temperature
Description: The human tankyrase 1 PARP catalytic domain, TNKS1P, was cloned into a pDONR221 vector using the Invitrogen Gateway Technology. This entry clone was then subcloned into the destination vector pDEST20 to obtain the N-terminal Glutathione S-transferase (GST)-tagged fusion protein.
The autoparsylation activity of the TNKS 1/2 or PARP1/2 enzymes was measured by the liquid chromatography-mass spectrometry (LC/MS) detection of nicotinamide as readout. Compound activity in inhibiting the TNKS and PARP autoparsylation was evaluated by IC50 measurements.

[3] = tested on: Wnt ligand-induced signaling; assay: Wnt-responsive Super-TOpFlash (STF) luciferase reporter gene assay in HEK293 cells; type: cell-based; conditions: Wnt3A condition medium induced
Description: Compound activity in inhibiting Wnt ligand-induced signaling was measured using a Wnt-responsive Super-TOpFlash (STF) luciferase reporter gene assay in HEK293 cells. On day 1 of the assay, cells were plated at a density of 8000 cells per well of 384-well plate in 25 μl medium containing 5% fetal bovine serum (FBS). On the second day, […] condition medium (CM) produced from mouse L cells was added to the cells to induce Wnt signaling, followed by addition of 5 μL of compounds each well in 10-point serial dilution. On the third day, the luciferase activity was measured by the Bright-Glo™ Luciferase Assay System following manufacture's protocol (Promega, E2620). The Inhibition was calculated as: (Maximum Wnt-induced signaling−Sample)/(Maximum Wnt-induced signaling−Background)*100. “Maximum Wnt-induced signaling” is the STF signal level induced by 20% Wnt3A CM without compound; and “Background” is the STF signal level without the addition of Wnt3A CM or compound.

Axin2 protein = assay: Cellular ELISA assay for stabilizing the Axin2 protein in SW480 cells; type: cell-based; conditions: 24 hrs treatment, read-out: Axin AC50
Description: Compound activity in stabilizing the Axin2 protein was measured by Sandwich Enzyme-Linked Immuosorbent (ELISA) assay in the colorectal cell line SW480. 30,000 SW480 cells were seeded per well in 96-well plate and incubated overnight prior to compound treatment. Cells were then treated with compounds in 6-point dilution starting at 10 μM for 24 hrs. Cells were then washed with 100 μL of cold Phosphate Buffer Saline (PBS), and lysed in 125 μl of cold 1× lysis buffer (Cell Signaling Technology, 9803) supplemented with Protease inhibitor (Roche, 11836170) and Phosphatase inhibitors (Sigma, P2850, P5726). For the ELISA assay, anti Axin-2 capture antibody (Strategic Diagnostics) antibody was diluted to a concentration of 1 μg/ml (1:1000) in Carbonate Coating buffer, pH 9.2 (Sigma, C3041-50CAP). 100μ of the diluted anti Axin-2 capture antibody per well was then used to coat the 96-well ELISA plate (Thermo Electron Corp., MicroLite 1 flat bottom plate #7571) overnight at 4° C. Plates were then washed three times with 300 μl/well of wash solution, PBST20 (PBS+0.05% Tween), and blocked with 300 μl/well 1% BSA/PBS (BSA, Millipore Probumin #82-045-1) for 1.5 hours at room temperature while shaking gently. After blocking, plates were then washed three times with 300 μl/well of wash solution. 100 μL of prepared SW480 cell lysate was then added to each well and incubated at room temperature for 2 hours while shaking gently. After washing, 100 μL of Biotinylated anti-Axin2 antibody (CST, 2151) was added to each well and incubated room temperature for 2 hours. 100 μL of Streptavidin-HRP (R&D systems, DY998) diluted 1:200 in 1% BSA/PBS was then added in each well and incubate for 30 mins at R/T in the dark. Signal was detected by Chemiluminescence (Pierce SuperSignal ELISA Femto #3704), and measured on PerkinElmer Wallac 1420 plate reader.

[4] = tested on: Non-small lung cancer ABC-1 cells; assay: Cellular proliferation assay, ABC-1 cells (CellTiter-Glo); type: cell-based; conditions: 3 days of compound treatment
Description: Non-small lung cancer ABC-1 cells were plated at 5000 cells per well in 96-well plates and treated with 8 serial compound dilutions starting from 10 μM as the highest concentration. Viable cells were measured after 3 days of compound treatment using the CellTiter-Glo assay (Promega, G7570). Assay was performed following the manufacture protocol.

human tankyrase 1 PARP catalytic domain, TNKS1P (GST-tagged), sequence (O95271 1112-1317): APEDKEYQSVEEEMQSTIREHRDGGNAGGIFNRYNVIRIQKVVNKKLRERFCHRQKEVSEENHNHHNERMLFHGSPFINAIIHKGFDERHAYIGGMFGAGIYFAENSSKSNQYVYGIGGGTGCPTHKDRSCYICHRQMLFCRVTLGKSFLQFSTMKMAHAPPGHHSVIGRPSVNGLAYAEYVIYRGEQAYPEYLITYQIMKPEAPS
tankyrase 2 protein PARP domain, TNKS2P (GST-tagged), sequence (Q9H2K2 959-1164): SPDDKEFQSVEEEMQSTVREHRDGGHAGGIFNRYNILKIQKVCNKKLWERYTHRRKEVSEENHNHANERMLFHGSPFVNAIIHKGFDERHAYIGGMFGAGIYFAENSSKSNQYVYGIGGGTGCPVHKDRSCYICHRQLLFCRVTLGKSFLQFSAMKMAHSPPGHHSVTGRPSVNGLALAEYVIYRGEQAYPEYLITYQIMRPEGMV

Structure (SMILES)	IC50 [1]	IC50 [2]	IC50 ([3]; Homo sapiens)	AC50 (Axin2 protein; Homo sapiens)	IC50 ([4]; Homo sapiens, 72 h)	IC50 [3]	AC50 (Axin2 protein)	IC50 [4]
COc1ccc(C(=O)C2CCN(C3CCN(Cc4cccc(Cl)c4C#N)C3=O)CC2)cc1 (stereo not shown) [Example 1, 2-Chloro-6-{3-[4-(4-methoxy-benzoyl)-piperidin-1-yl]-2-oxo-pyrrolidin-1-ylmethyl}-benzonitrile]	81 ± 1 nM	162 ± 4 nM	99 ± 11 nM	239 ± 31 nM	408 nM			
COc1ccc(C(=O)C2CCN([C@@H]3CCN(Cc4nc5c(c(=O)[nH]4)COCC5)C3=O)CC2)cc1 [Example 4, 2-{(R)-3-[4-(4-Methoxy-benzoyl)-piperidin-1-yl]-2-oxo-pyrrolidin-1-ylmethyl}-3,5,7,8-tetrahydro-pyrano[4,3-d]pyrimidin-4-one]	600 ± 330 nM	1600 ± 1200 nM	95 ± 11 nM	310 ± 270 nM	1020 ± 340 nM			
COc1ccc(C(=O)C2CCN(C3CCN(Cc4ccc(Cl)c(C#N)c4)C3=O)CC2)cc1 (stereo not shown) [Example 5, 2-Chloro-5-((3-(4-(4-methoxybenzoyl)piperidin-1-yl)-2-oxopyrrolidin-1-yl)methyl)benzonitrile]	15 ± 1 nM	36 ± 1 nM	17 ± 3 nM	66 ± 1 nM	156 nM			
COc1ccc(C(=O)C2CCN(C3CCN(Cc4nc5ccsc5c(=O)[nH]4)C3=O)CC2)cc1 (stereo not shown) [Example 7]	83 ± 5 nM	211 ± 63 nM	54 ± 12 nM	451 ± 68 nM	1470 nM			
COc1ccc(C(=O)C2CCN(C3CCN(Cc4nc5sc(C)cc5c(=O)[nH]4)C3=O)CC2)cc1 (stereo not shown) [Example 8]	141 ± 40 nM	96 ± 28 nM	18 ± 4 nM	78 ± 13 nM	133 nM			
O=C(c1ccc(F)cc1)C1CCN([C@@H]2CCN(Cc3nc4c(c(=O)[nH]3)COCC4)C2=O)CC1 [Example 12, 2-{(R)-3-[4-(4-Fluoro-benzoyl)-piperidin-1-yl]-2-oxo-pyrrolidin-1-ylmethyl}-3,5,7,8-tetrahydro-pyrano[4,3-d]pyrimidin-4-one]	2120 ± 50 nM	5340 ± 340 nM	620 ± 90 nM	> 10000 nM	> 10000 nM			
COc1ccc(C(=O)C2CCN([C@@H]3CCN(Cc4nc5c(c(=O)[nH]4)COCC5)C3=O)CC2)cc1C [Example 14, 2-{(R)-3-[4-(4-Methoxy-3-methyl-benzoyl)-piperidin-1-yl]-2-oxo-pyrrolidin-1-ylmethyl}-3,5,7,8-tetrahydro-pyrano[4,3-d]pyrimidin-4-one]	206 ± 20 nM	711 ± 20 nM	31 ± 3 nM	128 ± 130 nM	149 nM			
COc1ccc2c(c1)CC1(CCN(C3CCN(Cc4nc5c(c(=O)[nH]4)COCC5)C3=O)CC1)C2=O (stereo not shown) [Example 15, 2-((3-(5-methoxy-1-oxo-1,3-dihydrospiro[indene-2,4′-piperidine]-1′-yl)-2-oxopyrrolidin-1-yl)methyl)-7,8-dihydro-3H-pyrano[4,3-d]pyrimidin-4(5H)-one]		33 ± 2 nM	< 0.5 nM	16 ± 1 nM	43 nM			
COc1ccc2c(c1)CC1(CCN([C@H]3CCN(Cc4nc5c(c(=O)[nH]4)COCC5)C3=O)CC1)C2=O [Example 16]		12 ± 1 nM				1.7 ± 0.2 nM	7 ± 1 nM	82 nM
COc1ccc2c(c1)CC1(CCN([C@@H]3CCN(Cc4nc5c(c(=O)[nH]4)COCC5)C3=O)CC1)C2=O [Example 17]		3850 ± 480 nM				396 ± 10 nM	1790 ± 140 nM	2000 ± 900 nM
COc1ccc(C(=O)C2CCN(C3CCCN(Cc4nc5c(c(=O)[nH]4)COCC5)C3=O)CC2)cc1 (stereo not shown) [Example 18, 2-[4-(4-Methoxy-benzoyl)-2′-oxo-[1,3′]bipiperidinyl-1′-ylmethyl]-3,5,7,8-tetrahydro-pyrano[4,3-d]pyrimidin-4-one]	15 ± 1 nM	46 ± 1 nM	5.6 ± 0.7 nM	51 ± 7 nM	99 nM			
COc1ccc(C(=O)C2CCN(C3CCN(Cc4nccc(=O)[nH]4)C3=O)CC2)cc1 (stereo not shown) [Example 22, 2-{3-[4-(4-Methoxy-benzoyl)-piperidin-1-yl]-2-oxo-pyrrolidin-1-ylmethyl}-3H-pyrimidin-4-one]	764 ± 56 nM	1500 ± 120 nM	390 ± 190 nM					
COc1ccc(C(=O)C2CCN(C3CCN(Cc4nc(C)cc(=O)[nH]4)C3=O)CC2)cc1 (stereo not shown) [Example 23, 2-{3-[4-(4-Methoxy-benzoyl)-piperidin-1-yl]-2-oxo-pyrrolidin-1-ylmethyl}-6-methyl-3H-pyrimidin-4-one]	137 ± 22 nM	286 ± 5 nM	56 ± 33 nM	227 ± 25 nM	489 nM			
COc1ccc(C(=O)C2CCN(C3CCN(Cc4nc5ccccc(=O)c5[nH]4)C3=O)CC2)cc1 (stereo not shown) [Example 27, 2-((3-(4-(4-methoxybenzoyl)piperidin-1-yl)-2-oxopyrrolidin-1-yl)methyl)cyclohepta[d]imidazol-4(3H)-one]		36 ± 3 nM	0.4 ± 0.3 nM	3.2 ± 0.1 nM	1.5 nM			
COc1ccc(C(=O)C2CCN([C@@H]3CCN(Cc4nc5ccccc(=O)c5[nH]4)C3=O)CC2)cc1C [Example 29, 2-{(R)-3-[4-(4-Methoxy-3-methyl-benzoyl)-piperidin-1-yl]-2-oxo-pyrrolidin-1-ylmethyl}-3H-cycloheptaimidazol-4-one]	112 nM	278 ± 50 nM	14 ± 4 nM	9 ± 1 nM	10 nM			
COc1ccc(C(=O)C2CCN([C@H]3CCN(Cc4nc5ccccc(=O)c5[nH]4)C3=O)CC2)cc1 [Example 30, 2-{(S)-3-[4-(4-Methoxy-benzoyl)-piperidin-1-yl]-2-oxo-pyrrolidin-1-ylmethyl}-3H-cycloheptaimidazol-4-one]		9.5 ± 0.7 nM	1.1 ± 0.1 nM	0.6 ± 0.1 nM	0.86 ± 0.1 nM			
COc1ccc(C(=O)C2CCN([C@H]3CCN(CC(=O)Nc4nnc5n4CCS5)C3=O)CC2)cc1 [Example 33]		830 ± 20 nM					1340 ± 110 nM	1610 nM
COc1ccc(C(=O)C2CCN(C3CCN(CC(=O)Nc4nnnn4C)C3=O)CC2)cc1 (stereo not shown) [Example 36, 2-(3-(4-(4-methoxybenzoyl)piperidin-1-yl)-2-oxopyrrolidin-1-yl)-N-(1-methyl-1H-tetrazol-5-yl)acetamide]	1480 ± 20 nM	3080 ± 230 nM	7600 ± 800 nM		> 10000 nM			
COc1ccc(C(=O)C2CCN(C3CCN(CC(=O)Nc4nncc5c4CCCO5)C3=O)CC2)cc1 (stereo not shown) [Example 37, N-(3,4-dihydro-2H-pyrano[2,3-d]pyridazin-5-yl)-2-(3-(4-(4-methoxybenzoyl)piperidin-1-yl)-2-oxopyrrolidin-1-yl)acetamide]	970 ± 60 nM	3010 ± 60 nM	396 ± 26 nM		2230 nM			
COc1ccc(C(=O)C2CCN(C3CCN(CC(=O)Nc4noc5ncccc45)C3=O)CC2)cc1 (stereo not shown) [Example 38, N-(isoxazolo[5,4-b]pyridin-3-yl)-2-(3-(4-(4-methoxybenzoyl)piperidin-1-yl)-2-oxopyrrolidin-1-yl)acetamide]	4560 ± 40 nM	6500 ± 800 nM	2030 ± 180 nM		7900 nM			
